US20120239131A1, “METHODS AND APPARATUS FOR TREATMENT OF ANEURYSMAL TISSUE” (Medtronic Vascular, Inc., priority 2011, published 2012)

Legend:
ACE = ACE (Homo sapiens, UniProt P12821); details: in vitro; cited from earlier work
[1] = cited from earlier work
[2] = in vivo; cited from earlier work
[3] = system: genes involved in the pathophysiology of AAA; experiment: Drug inhibition effect on differentially expressed genes, overall; type: in vivo, ApoE−/− mice; details: sum of heat map grades over 25 genes; ApoE−/− + Ang II group scored 55
Method: (§1) ApoE−/− mice used in this study were divided into different pretreatment groups: 1) Fluvastatin-MF; 2) Doxycycline-MD; 3) Irbesartan-MI; 4) Telmisartan-MT; 5) Control (water) and fed medicated chow or medicated drinking water 1 week prior to pump implantation. AngII (1000 ng·kg^−1 of body weight·min^−1) was infused subcutaneously via Alzet mini-osmotic pumps for 28 days. All mice were maintained on the medicated chow (MI & MT) or medicated drinking water (MF & MD) treatments which were delivered daily for a total of 28 days following pump implantation.
(§2) In order to determine the effect of the various treatments on the progressive enlargement of the experimental AAAs the mice were followed with high frequency trans-abdominal ultrasound. Maximum aortic diameter was measured and recorded prior to pump implantation and then at 3, 7, 14, 21, and 28 days. All mice were sacrificed 28 days after pump implantation. Aortae were harvested and subjected to either histological analysis (Elastic Masson trichome, MAC2, CD31 and TUNEL staining) and analysis of mural gene expression. Plasma drug concentrations of experimental compounds were quantified on the day of sacrifice using high performance liquid chromatography (HPLC).
(§3) Total RNA was extracted from homogenized aortas using the Qiazol lysis reagent and RNeasy Lipid Tissue Mini kit. DNAse treatment was included in the procedure. RNA concentration was determined utilizing the Quant iT RNA assay kit. Complimentary deoxyribonucleic acid (cDNA) was synthesized from 1 μg RNA using High reverse cDNA transcription kit. Briefly the reaction tubes containing RNA, reverse transcriptase, buffer, RNAse inhibitor, and nuclease free water were incubated at 25° C. for 10 minutes to allow annealing. Reverse transcription was performed at 37° C. for 120 min, followed by a 5 sec incubation at 85° C. to inactivate the reverse transcriptase enzyme. The cDNA samples were cooled at 4° C. and stored at −80° C. until further use.
(§4) Real time PCR was performed using a 384-well Taqman low density array (TLDA) card. Each sample specific PCR mix contained 50 ng of total RNA converted to cDNA. The PCR reaction for Taqman assays contained 50 μl Master Mix (Taqman Universal PCR Master Mix,) and 50 ul of cDNA and RNAase free water. Assays were performed to include appropriate controls (no template control). The RT-PCR protocol included an initial step of 50° C. (2 minutes) […], denaturation by a hot start at 95° C. for 10 min, followed by 40 cycles of a 2 step program (denaturation at 95° C. for 15 secs for primer annealing/extension at 60° C. for 1 min). Fluorescence data was collected at 60° C. Fluorescence was quantified with ABI PRISM 7900HT Sequence Detection System. To verify amplification of a specific target cDNA, data generated was analyzed using SDS 2.2.3 software (Sequence Detection System Software, Applied Biosystems). For all amplification plots, the baseline data were set with the automatic CT function available with SDS 2.2.3 calculating the optimal baseline range and threshold value by using the AutoCT algorithm. According to the manufacturer's instruction, a CT value of ≧39 corresponds to nonspecific amplification marking the limits of detection. For endogenous control GAPDH was normalized to B2M. For relative quantification (RQ), pooled ApoE−/− control was used as the calibrator (with expression equal to 1).

CSF1 = experiment: Aortic mural gene expression, RT-PCR (TLDA); type: in vivo, ApoE−/− mice; details: fold change over ApoE−/− control; aorta, 28 days Ang II infusion
Method: (§5) Total RNA was extracted from homogenized aortas using the Qiazol lysis reagent and RNeasy Lipid Tissue Mini kit. DNAse treatment was included in the procedure. RNA concentration was determined utilizing the Quant iT RNA assay kit. Complimentary deoxyribonucleic acid (cDNA) was synthesized from 1 μg RNA using High reverse cDNA transcription kit. Briefly the reaction tubes containing RNA, reverse transcriptase, buffer, RNAse inhibitor, and nuclease free water were incubated at 25° C. for 10 minutes to allow annealing. […] The cDNA samples were cooled at 4° C. and stored at −80° C. until further use.
(§6) Real time PCR was performed using a 384-well Taqman low density array (TLDA) card. Each sample specific PCR mix contained 50 ng of total RNA converted to cDNA. The PCR reaction for Taqman assays contained 50 μl Master Mix (Taqman Universal PCR Master Mix,) and 50 ul of cDNA and RNAase free water. Assays were performed to include appropriate controls (no template control). The RT-PCR protocol included an initial step of 50° C. […] Fluorescence data was collected at 60° C. Fluorescence was quantified with ABI PRISM 7900HT Sequence Detection System. To verify amplification of a specific target cDNA, data generated was analyzed using SDS 2.2.3 software (Sequence Detection System Software, Applied Biosystems). […] For relative quantification (RQ), pooled ApoE−/− control was used as the calibrator (with expression equal to 1).

NFKb1 = experiment: Aortic mural gene expression, RT-PCR (TLDA); type: in vivo, ApoE−/− mice; details: fold change over ApoE−/− control; aorta, 28 days Ang II infusion
Method: as §5, §6

ITGAL = experiment: Aortic mural gene expression, RT-PCR (TLDA); type: in vivo, ApoE−/− mice; details: fold change over ApoE−/− control; aorta, 28 days Ang II infusion
Method: as §1, §2, §3, §4

Osteopontin = experiment: Aortic mural gene expression, RT-PCR (TLDA); type: in vivo, ApoE−/− mice; details: fold change over ApoE−/− control; aorta, 28 days Ang II infusion
Method: as §1, §2, §3, §4

Tgfβ1 = experiment: Aortic mural gene expression, RT-PCR (TLDA); type: in vivo, ApoE−/− mice; details: fold change over ApoE−/− control; aorta, 28 days Ang II infusion
Method: as §1, §2, §3, §4

Runx3 = experiment: Aortic mural gene expression, RT-PCR (TLDA); type: in vivo, ApoE−/− mice; details: fold change over ApoE−/− control; aorta, 28 days Ang II infusion
Method: as §1, §2, §3, §4

HMOX 1 = experiment: Aortic mural gene expression, RT-PCR (TLDA); type: in vivo, ApoE−/− mice; details: fold change over ApoE−/− control; aorta, 28 days Ang II infusion
Method: as §1, §2, §3, §4

CCR2 = experiment: Aortic mural gene expression, RT-PCR (TLDA); type: in vivo, ApoE−/− mice; details: fold change over ApoE−/− control; aorta, 28 days Ang II infusion
Method: as §1, §2, §3, §4

MAPK8 = experiment: Aortic mural gene expression, RT-PCR (TLDA); type: in vivo, ApoE−/− mice; details: fold change over ApoE−/− control; aorta, 28 days Ang II infusion
Method: as §1, §2, §3, §4

LOX = experiment: Aortic mural gene expression, RT-PCR (TLDA); type: in vivo, ApoE−/− mice; details: fold change over ApoE−/− control; aorta, 28 days Ang II infusion
Method: as §1, §2, §3, §4

Rac2 = experiment: Aortic mural gene expression, RT-PCR (TLDA); type: in vivo, ApoE−/− mice; details: fold change over ApoE−/− control; aorta, 28 days Ang II infusion
Method: as §1, §2, §3, §4

TNF-α = experiment: Aortic mural gene expression, RT-PCR (TLDA); type: in vivo, ApoE−/− mice; details: fold change over ApoE−/− control; aorta, 28 days Ang II infusion
Method: as §1, §2, §3, §4

CCR5 = experiment: Aortic mural gene expression, RT-PCR (TLDA); type: in vivo, ApoE−/− mice; details: fold change over ApoE−/− control; aorta, 28 days Ang II infusion
Method: as §1, §2, §3, §4

CCL2 = experiment: Aortic mural gene expression, RT-PCR (TLDA); type: in vivo, ApoE−/− mice; details: fold change over ApoE−/− control; aorta, 28 days Ang II infusion
Method: as §1, §2, §3, §4

MMP-12 = experiment: Aortic mural gene expression, RT-PCR (TLDA); type: in vivo, ApoE−/− mice; details: fold change over ApoE−/− control; aorta, 28 days Ang II infusion
Method: as §1, §2, §3, §4

Fibronectin -1 = experiment: Aortic mural gene expression, RT-PCR (TLDA); type: in vivo, ApoE−/− mice; details: fold change over ApoE−/− control; aorta, 28 days Ang II infusion
Method: as §1, §2, §3, §4

CXCR4 = experiment: Aortic mural gene expression, RT-PCR (TLDA); type: in vivo, ApoE−/− mice; details: fold change over ApoE−/− control; aorta, 28 days Ang II infusion
Method: as §1, §2, §3, §4

Cathepsin B = experiment: Aortic mural gene expression, RT-PCR (TLDA); type: in vivo, ApoE−/− mice; details: fold change over ApoE−/− control; aorta, 28 days Ang II infusion
Method: as §1, §2, §3, §4

Cybb = experiment: Aortic mural gene expression, RT-PCR (TLDA); type: in vivo, ApoE−/− mice; details: fold change over ApoE−/− control; aorta, 28 days Ang II infusion
Method: as §1, §2, §3, §4

ITGB2 = experiment: Aortic mural gene expression, RT-PCR (TLDA); type: in vivo, ApoE−/− mice; details: fold change over ApoE−/− control; aorta, 28 days Ang II infusion
Method: as §1, §2, §3, §4

TIMP2 = experiment: Aortic mural gene expression, RT-PCR (TLDA); type: in vivo, ApoE−/− mice; details: fold change over ApoE−/− control; aorta, 28 days Ang II infusion
Method: as §1, §2, §3, §4

Vav1 = experiment: Aortic mural gene expression, RT-PCR (TLDA); type: in vivo, ApoE−/− mice; details: fold change over ApoE−/− control; aorta, 28 days Ang II infusion
Method: as §1, §2, §3, §4

MMP-8 = experiment: Aortic mural gene expression, RT-PCR (TLDA); type: in vivo, ApoE−/− mice; details: fold change over ApoE−/− control; aorta, 28 days Ang II infusion
Method: as §1, §2, §3, §4

IL-7 = experiment: Aortic mural gene expression, RT-PCR (TLDA); type: in vivo, ApoE−/− mice; details: fold change over ApoE−/− control; aorta, 28 days Ang II infusion
Method: as §1, §2, §3, §4

Cathepsin S = experiment: Aortic mural gene expression, RT-PCR (TLDA); type: in vivo, ApoE−/− mice; details: fold change over ApoE−/− control; aorta, 28 days Ang II infusion
Method: as §1, §2, §3, §4

Chain of ACE (P12821 30-1306, species assumed): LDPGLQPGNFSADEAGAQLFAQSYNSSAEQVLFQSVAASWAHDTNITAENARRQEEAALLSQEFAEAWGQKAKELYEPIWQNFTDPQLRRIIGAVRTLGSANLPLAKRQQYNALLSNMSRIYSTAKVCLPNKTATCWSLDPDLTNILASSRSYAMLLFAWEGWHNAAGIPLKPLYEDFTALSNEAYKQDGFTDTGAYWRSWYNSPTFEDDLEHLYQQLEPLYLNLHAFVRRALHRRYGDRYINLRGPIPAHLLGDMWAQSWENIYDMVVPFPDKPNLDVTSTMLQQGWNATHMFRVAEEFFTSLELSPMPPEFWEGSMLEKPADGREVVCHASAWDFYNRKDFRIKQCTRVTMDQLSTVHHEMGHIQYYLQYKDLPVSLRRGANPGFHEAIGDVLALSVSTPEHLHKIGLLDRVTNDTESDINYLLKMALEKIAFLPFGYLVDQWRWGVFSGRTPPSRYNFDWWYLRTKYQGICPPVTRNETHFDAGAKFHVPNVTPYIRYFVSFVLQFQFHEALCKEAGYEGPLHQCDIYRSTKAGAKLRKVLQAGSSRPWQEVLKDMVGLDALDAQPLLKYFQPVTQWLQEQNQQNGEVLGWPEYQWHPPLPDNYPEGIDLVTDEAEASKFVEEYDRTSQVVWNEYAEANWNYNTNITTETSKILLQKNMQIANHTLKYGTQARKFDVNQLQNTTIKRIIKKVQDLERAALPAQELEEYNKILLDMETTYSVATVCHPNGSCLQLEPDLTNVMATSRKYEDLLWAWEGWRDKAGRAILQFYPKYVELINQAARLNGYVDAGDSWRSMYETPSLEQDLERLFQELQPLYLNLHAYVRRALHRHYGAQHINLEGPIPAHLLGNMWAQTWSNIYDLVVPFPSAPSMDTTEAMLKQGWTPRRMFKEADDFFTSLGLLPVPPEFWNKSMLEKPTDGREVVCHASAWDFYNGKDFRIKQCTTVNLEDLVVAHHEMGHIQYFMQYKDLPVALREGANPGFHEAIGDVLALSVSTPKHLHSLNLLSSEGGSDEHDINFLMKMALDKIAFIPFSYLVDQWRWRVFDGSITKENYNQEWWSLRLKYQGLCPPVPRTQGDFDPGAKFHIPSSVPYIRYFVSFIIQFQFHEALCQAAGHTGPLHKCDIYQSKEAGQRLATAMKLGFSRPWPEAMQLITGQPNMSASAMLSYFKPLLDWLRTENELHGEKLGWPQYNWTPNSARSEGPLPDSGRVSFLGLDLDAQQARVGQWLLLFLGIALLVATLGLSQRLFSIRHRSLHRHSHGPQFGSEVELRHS

Question: With `CCOC(=O)[C@H](CCc1ccccc1)N[C@@H](C)C(=O)N1CCC[C@H]1C(=O)O` [enalapril] as the molecule, how does the “ACE inhibitor potency (in words)” value (ACE) read?
Answer: Its value is “not highly active”.

Question: Which Water solubility [1] does the source give for `O=C(O)c1cccnc1` [Niacin, nicotinic acid] here?
Answer: The Water solubility was “water-soluble”.

Question: With `CCC(=O)O[C@@H](O[P@](=O)(CCCCc1ccccc1)CC(=O)N1C[C@H](C2CCCCC2)C[C@H]1C(=O)O)C(C)C` [fosinopril] as the molecule, how does the Route of clearance/elimination [2] read?
Answer: Its Route of clearance/elimination is “balanced elimination by the liver and kidneys”.

Question: With `C[C@H]1c2cccc(O)c2C(=O)C2=C(O)[C@]3(O)C(=O)C(C(N)=O)=C(O)[C@@H](N(C)C)[C@@H]3[C@@H](O)[C@@H]21` [Doxycycline] as the molecule, how does the “Total Score” value [3] read?
Answer: The value was 53.

Question: What about the CSF1 expression (CSF1) of the same molecule?
Answer: Its CSF1 expression is “− (0 to 1 = −)”.

Question: What about the NFKb1 expression (NFKb1) of the same molecule?
Answer: Its NFKb1 expression is “− (0 to 1 = −)”.

Question: What about the ITGAL expression (ITGAL) of the same molecule?
Answer: The ITGAL expression was “+++ (3.1 to 10 = +++)”.

Question: What about the Osteopontin expression (Osteopontin) of the same molecule?
Answer: The Osteopontin expression was “++++ (>10.1 = ++++)”.

Question: What about the Tgfβ1 expression (Tgfβ1) of the same molecule?
Answer: Its Tgfβ1 expression is “+++ (3.1 to 10 = +++)”.

Question: And the Runx3 expression (Runx3)?
Answer: Its Runx3 expression is “+++ (3.1 to 10 = +++)”.

Question: What about the “HMOX 1 expression” value (HMOX 1) of the same molecule?
Answer: The value was “++++ (>10.1 = ++++)”.

Question: And the CCR2 expression (CCR2)?
Answer: The CCR2 expression was “+++ (3.1 to 10 = +++)”.

Question: And the MAPK8 expression (MAPK8)?
Answer: The MAPK8 expression was “− (0 to 1 = −)”.

Question: And the LOX expression (LOX)?
Answer: Its LOX expression is “− (0 to 1 = −)”.

Question: What about the Rac2 expression (Rac2) of the same molecule?
Answer: The Rac2 expression was “+++ (3.1 to 10 = +++)”.

Question: And the TNF-α expression (TNF-α)?
Answer: The TNF-α expression was “++ (1.51 to 3 = ++)”.

Question: And the CCR5 expression (CCR5)?
Answer: Its CCR5 expression is “+++ (3.1 to 10 = +++)”.

Question: And the CCL2 expression (CCL2)?
Answer: Its CCL2 expression is “+ (1.1 to 1.5 = +)”.

Question: What about the MMP-12 expression (MMP-12) of the same molecule?
Answer: The MMP-12 expression was “++++ (>10.1 = ++++)”.

Question: What about the “Fibronectin -1 expression” value (Fibronectin -1) of the same molecule?
Answer: Its value is “− (0 to 1 = −)”.

Question: And the CXCR4 expression (CXCR4)?
Answer: Its CXCR4 expression is “++++ (>10.1 = ++++)”.

Question: And the “Cathepsin B expression” value (Cathepsin B)?
Answer: The value was “++ (1.51 to 3 = ++)”.

Question: And the Cybb expression (Cybb)?
Answer: Its Cybb expression is “+++ (3.1 to 10 = +++)”.

Question: What about the ITGB2 expression (ITGB2) of the same molecule?
Answer: Its ITGB2 expression is “++ (1.51 to 3 = ++)”.

Question: And the TIMP2 expression (TIMP2)?
Answer: The TIMP2 expression was “− (0 to 1 = −)”.

Question: What about the Vav1 expression (Vav1) of the same molecule?
Answer: Its Vav1 expression is “++ (1.51 to 3 = ++)”.

Question: What about the MMP-8 expression (MMP-8) of the same molecule?
Answer: The MMP-8 expression was “++++ (>10.1 = ++++)”.

Question: And the IL-7 expression (IL-7)?
Answer: Its IL-7 expression is “− (0 to 1 = −)”.

Question: And the “Cathepsin S expression” value (Cathepsin S)?
Answer: Its value is “+++ (3.1 to 10 = +++)”.
